Measurements: patent US6958346B2, “4-heteroaryl-tetrahydroquinolines and their use as inhibitors of the cholesterin-ester transfer protein” (Bayer Aktiengesellschaft, priority 1997, dated 2005)

Legend:
[1] = target: T1, cholesterol ester transfer protein (CETP) (Homo sapiens, UniProt P11597); experiment: CETP inhibition test (transfer of 3H-cholesterol ester from human HDL to biotinylated LDL, SPA); type: biochemical; settings: CETP partially purified from human plasma; 37° C., 18 h; concentration at which transfer is reduced by half
T1 construct: CETP is obtained in partially purified form from human plasma by differential centrifugation and column chromatography; from tissue; host or cells: human plasma
T1 sequence (P11597 18-493): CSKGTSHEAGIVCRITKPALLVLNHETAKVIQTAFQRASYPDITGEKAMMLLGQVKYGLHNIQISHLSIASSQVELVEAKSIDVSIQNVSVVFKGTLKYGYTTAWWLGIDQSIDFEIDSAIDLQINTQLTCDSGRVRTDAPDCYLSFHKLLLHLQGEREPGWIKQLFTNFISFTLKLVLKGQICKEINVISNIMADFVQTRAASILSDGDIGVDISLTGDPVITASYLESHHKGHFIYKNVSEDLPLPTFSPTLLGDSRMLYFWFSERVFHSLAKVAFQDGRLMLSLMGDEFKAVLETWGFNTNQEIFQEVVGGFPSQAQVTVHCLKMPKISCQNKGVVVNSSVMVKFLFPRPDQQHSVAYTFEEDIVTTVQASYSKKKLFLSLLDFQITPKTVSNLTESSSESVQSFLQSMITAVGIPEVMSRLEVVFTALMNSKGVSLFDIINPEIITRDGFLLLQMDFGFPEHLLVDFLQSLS
Method: CETP is obtained in partially purified form from human plasma by differential centrifugation and column chromatography and used for the test. For this purpose, human plasma is adjusted to a density of 1.21 g per ml using NaBr and centrifuged at 50,000 rpm at 4° C. for 18 h. The bottom fraction (d>1.21 g/ml) is applied to a Sephadex®Phenyl-Sepharose 4B (Pharmacia) column, washed with 0.15 m NaCl/0.001 m TrisHCl pH 7.4 and subsequently eluted using dist. water. The CETP-active fractions are pooled, dialysed against 50 mM Na-acetate pH 4.5 and applied to a CM-Sepharose® (Pharmacia) column. Elution is subsequently carried out using a linear gradient (0-1 M NaCl). The pooled CETP fractions are dialysed against 10 mM TrisHCl pH 7.4 and subsequently purified further by chromatography over a Mono Q® column (Pharmacia).
50 ml of fresh human EDTA plasma are adjusted to a density of 1.12 using NaBr and centrifuged at 4° C. in a Ty 65 rotor at 50,000 rpm for 18 h. The upper phase is used to obtain cold LDL. […]
To test the CETP activity, the transfer of ^3H-cholesterol ester from human HD-lipoproteins to biotinylated LD-lipoproteins is measured.
The reaction is terminated by addition of Streptavidin-SPA® beads (Amersham) and the transferred radioactivity is directly determined in a liquid scintillation counter. […]

Row | IC50 [1] [nM] | melting point [°C] | SMILES
1 | 10 |  | CC1(C)CC(=O)c2c(nc(C3CCCC3)c(C(=O)c3ccc(C(F)(F)F)cc3)c2-c2ccsc2)C1 [Example 1, 2-Cyclopentyl-7,7-dimethyl-4-(3-thienyl)-3-(4-trifluoromethylbenzoyl)-5,6,7,8-tetrahydro-quinolin-5-one]
2 |  | 221 to 224 | CC1(C)CC(=O)c2c(nc(C3CCCC3)c(C(=O)c3ccc(C(F)(F)F)cc3)c2-c2ccncc2)C1 [Example 2]
3 |  | 185 to 186 | CC1(C)CC(=O)c2c(nc(C3CCCC3)c(C(=O)c3ccc(C(F)(F)F)cc3)c2C2CCCCC2)C1 [Example 3]
